Test systems include OVCAR-8 ovarian; DU-145 prostate; SNB-75 CNS; NCI-H460 lung; SF-295 CNS; NCI/ADR-RES ovarian; CAKI-1 renal; SF-539 CNS; KM12 colon; UO-31 renal; NCI-H522 lung; NCI-H226 lung; U251 CNS; A549 NSCLC; SK-MEL-28 melanoma; SF-268 CNS; PC-3 prostate; HCT-116 colon; OVCAR-3 ovarian; ACHN renal.
What all share (assay): NCI tumour cell line growth inhibition, 48 h

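Dose response: 5 concentrations. Exposure: 48 h. Format: 96-well plates. Endpoint: linear interpolation; highest concentration if not reached. TGI marks complete inhibition of growth.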 Some results are limits rather than exact numbers.

Consider six compounds from PubChem BioAssay (NCI).

Turning to `O=C1CSC(/C=C/c2ccccc2)N1c1ccc(-n2c(-c3ccccc3)nc3ccccc3c2=O)cc1` (stereo not drawn), the TGI in the test on OVCAR-8 ovarian was above 100 µM; in the test with DU-145 prostate, above 100 µM; in the test with SNB-75 CNS, 90 µM; in the test on NCI-H460 lung, above 100 µM; in the test on SF-295 CNS it was above 100 µM; in the test with NCI/ADR-RES ovarian, above 100 µM. The TGI in the test with CAKI-1 renal, in the test with SF-539 CNS, in the test on KM12 colon, in the test on UO-31 renal, in the test on NCI-H522 lung and with NCI-H226 lung was above 100 µM each time. Also, the TGI with U251 CNS, in the test with A549 NSCLC, with SK-MEL-28 melanoma, with SF-268 CNS, in the test on PC-3 prostate and in the test on HCT-116 colon was above 100 µM throughout. For the same compound, the TGI with OVCAR-3 ovarian was above 100 µM.
On to `N#CC(c1ccccc1)N(CCc1ccccc1)C(=O)Oc1ccccc1` (stereo not drawn), for which the TGI in the test with ACHN renal was above 100 µM; with OVCAR-8 ovarian, above 100 µM; with DU-145 prostate, above 100 µM; with SNB-75 CNS, 74.7 µM; in the test on SF-295 CNS, above 100 µM; in the test on NCI/ADR-RES ovarian it was above 100 µM. Moreover, the TGI with CAKI-1 renal, in the test with SF-539 CNS, in the test on KM12 colon, in the test with UO-31 renal, in the test with NCI-H522 lung and in the test on NCI-H226 lung was above 100 µM each time. In addition, the TGI with U251 CNS, in the test with A549 NSCLC, with SK-MEL-28 melanoma, in the test with SF-268 CNS, in the test on PC-3 prostate and in the test with HCT-116 colon was above 100 µM in each case. In the test with OVCAR-3 ovarian, this compound yielded a TGI above 100 µM.
For `CC1C(=O)C23OC[C@@]1(C)C1(O)CC[C@@H](C)[C@]21CC3=O` (stereo partly drawn), the TGI with ACHN renal, with OVCAR-8 ovarian, in the test with DU-145 prostate, with SNB-75 CNS, in the test with NCI-H460 lung and in the test on SF-295 CNS was above 100 µM in each case. The TGI with NCI/ADR-RES ovarian, in the test with SF-539 CNS, with KM12 colon, in the test on UO-31 renal, with NCI-H522 lung and in the test with NCI-H226 lung was above 100 µM throughout. Besides, the TGI with U251 CNS, in the test with A549 NSCLC, in the test on SK-MEL-28 melanoma, in the test on SF-268 CNS, with PC-3 prostate and in the test with HCT-116 colon was above 100 µM throughout. The TGI with OVCAR-3 ovarian is above 100 µM.
Take `CC1CC(NN(C)C)C2(C(N)=O)C(N)=NC(=O)C12C#N` (stereo not drawn): the TGI with ACHN renal, with OVCAR-8 ovarian, in the test with DU-145 prostate, in the test on SNB-75 CNS, in the test on SF-295 CNS and in the test with NCI/ADR-RES ovarian was above 100 µM in each case. The TGI with CAKI-1 renal, in the test on SF-539 CNS, with KM12 colon, in the test on UO-31 renal, in the test on NCI-H522 lung and with NCI-H226 lung was above 100 µM in each case. The TGI in the test with U251 CNS, in the test with A549 NSCLC, in the test on SK-MEL-28 melanoma, with SF-268 CNS, in the test on PC-3 prostate and with HCT-116 colon was above 100 µM each time.
For the compound `CCCCCCCCCC(=O)CC(=O)c1c(O)cc(O)cc1O`, the TGI is above 75 µM in the test with ACHN renal; 36.9 µM in the test on OVCAR-8 ovarian; 57.9 µM in the test with DU-145 prostate; 69.6 µM in the test with SNB-75 CNS; 68.2 µM in the test on SF-295 CNS; 38.6 µM in the test with NCI/ADR-RES ovarian. Further, the TGI with CAKI-1 renal is above 75 µM; in the test with SF-539 CNS, 43.3 µM; in the test with KM12 colon, 42.8 µM; with UO-31 renal, 31.7 µM; in the test on NCI-H522 lung, 47.3 µM; with NCI-H226 lung, 36.2 µM. Also, the TGI with U251 CNS is above 75 µM; with A549 NSCLC it was above 75 µM; in the test on SK-MEL-28 melanoma it was 72.8 µM; with SF-268 CNS, 49.5 µM; with PC-3 prostate, 41.8 µM; in the test on HCT-116 colon it was above 75 µM. For the same compound, the TGI with OVCAR-3 ovarian was found to be 53.2 µM.
On to `O=C(NNC(=O)c1ccccc1Cl)c1ccccc1O`, for which the TGI in the test with OVCAR-8 ovarian, in the test with DU-145 prostate, in the test with SNB-75 CNS, in the test with NCI-H460 lung, in the test with SF-295 CNS and with NCI/ADR-RES ovarian was above 100 µM throughout. For the same compound, the TGI in the test on CAKI-1 renal is above 100 µM; with SF-539 CNS it was above 100 µM; in the test with KM12 colon, above 100 µM; in the test with UO-31 renal it was above 100 µM; with NCI-H522 lung, 99.2 µM; with NCI-H226 lung, 77.1 µM. The TGI in the test on U251 CNS, with A549 NSCLC, in the test with SK-MEL-28 melanoma, in the test with SF-268 CNS, in the test with PC-3 prostate and with HCT-116 colon was above 100 µM throughout. In addition, in the test on OVCAR-3 ovarian, the TGI was above 100 µM.
